Measured values reported in ChEMBL document CHEMBL1201862, “PubChem BioAssay data set” (2004).
The source made the active and inactive calls.

Legend:
[1] = intracellular Trypanosoma cruzi inhibitors in host cells – cell-based, plate reader, cherry-pick samples, set 3, dose response (AID 651818); assay type: functional;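 also: compounds incubated with infected cells for about four days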
Fatty acid synthase [2] = target: T1, Fatty acid synthase (Homo sapiens, UniProt P49327); experiment: inhibition of human FAS-TE enzyme activity – biochemical, endpoint fluorescence intensity, uHTS hits, dose response (AID 624327); assay type: functional;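 also: fluorescence from hydrolysis of an O-methyl fluorescein acyl ester substrate by the enzyme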
T1 sequence (P49327 whole entry): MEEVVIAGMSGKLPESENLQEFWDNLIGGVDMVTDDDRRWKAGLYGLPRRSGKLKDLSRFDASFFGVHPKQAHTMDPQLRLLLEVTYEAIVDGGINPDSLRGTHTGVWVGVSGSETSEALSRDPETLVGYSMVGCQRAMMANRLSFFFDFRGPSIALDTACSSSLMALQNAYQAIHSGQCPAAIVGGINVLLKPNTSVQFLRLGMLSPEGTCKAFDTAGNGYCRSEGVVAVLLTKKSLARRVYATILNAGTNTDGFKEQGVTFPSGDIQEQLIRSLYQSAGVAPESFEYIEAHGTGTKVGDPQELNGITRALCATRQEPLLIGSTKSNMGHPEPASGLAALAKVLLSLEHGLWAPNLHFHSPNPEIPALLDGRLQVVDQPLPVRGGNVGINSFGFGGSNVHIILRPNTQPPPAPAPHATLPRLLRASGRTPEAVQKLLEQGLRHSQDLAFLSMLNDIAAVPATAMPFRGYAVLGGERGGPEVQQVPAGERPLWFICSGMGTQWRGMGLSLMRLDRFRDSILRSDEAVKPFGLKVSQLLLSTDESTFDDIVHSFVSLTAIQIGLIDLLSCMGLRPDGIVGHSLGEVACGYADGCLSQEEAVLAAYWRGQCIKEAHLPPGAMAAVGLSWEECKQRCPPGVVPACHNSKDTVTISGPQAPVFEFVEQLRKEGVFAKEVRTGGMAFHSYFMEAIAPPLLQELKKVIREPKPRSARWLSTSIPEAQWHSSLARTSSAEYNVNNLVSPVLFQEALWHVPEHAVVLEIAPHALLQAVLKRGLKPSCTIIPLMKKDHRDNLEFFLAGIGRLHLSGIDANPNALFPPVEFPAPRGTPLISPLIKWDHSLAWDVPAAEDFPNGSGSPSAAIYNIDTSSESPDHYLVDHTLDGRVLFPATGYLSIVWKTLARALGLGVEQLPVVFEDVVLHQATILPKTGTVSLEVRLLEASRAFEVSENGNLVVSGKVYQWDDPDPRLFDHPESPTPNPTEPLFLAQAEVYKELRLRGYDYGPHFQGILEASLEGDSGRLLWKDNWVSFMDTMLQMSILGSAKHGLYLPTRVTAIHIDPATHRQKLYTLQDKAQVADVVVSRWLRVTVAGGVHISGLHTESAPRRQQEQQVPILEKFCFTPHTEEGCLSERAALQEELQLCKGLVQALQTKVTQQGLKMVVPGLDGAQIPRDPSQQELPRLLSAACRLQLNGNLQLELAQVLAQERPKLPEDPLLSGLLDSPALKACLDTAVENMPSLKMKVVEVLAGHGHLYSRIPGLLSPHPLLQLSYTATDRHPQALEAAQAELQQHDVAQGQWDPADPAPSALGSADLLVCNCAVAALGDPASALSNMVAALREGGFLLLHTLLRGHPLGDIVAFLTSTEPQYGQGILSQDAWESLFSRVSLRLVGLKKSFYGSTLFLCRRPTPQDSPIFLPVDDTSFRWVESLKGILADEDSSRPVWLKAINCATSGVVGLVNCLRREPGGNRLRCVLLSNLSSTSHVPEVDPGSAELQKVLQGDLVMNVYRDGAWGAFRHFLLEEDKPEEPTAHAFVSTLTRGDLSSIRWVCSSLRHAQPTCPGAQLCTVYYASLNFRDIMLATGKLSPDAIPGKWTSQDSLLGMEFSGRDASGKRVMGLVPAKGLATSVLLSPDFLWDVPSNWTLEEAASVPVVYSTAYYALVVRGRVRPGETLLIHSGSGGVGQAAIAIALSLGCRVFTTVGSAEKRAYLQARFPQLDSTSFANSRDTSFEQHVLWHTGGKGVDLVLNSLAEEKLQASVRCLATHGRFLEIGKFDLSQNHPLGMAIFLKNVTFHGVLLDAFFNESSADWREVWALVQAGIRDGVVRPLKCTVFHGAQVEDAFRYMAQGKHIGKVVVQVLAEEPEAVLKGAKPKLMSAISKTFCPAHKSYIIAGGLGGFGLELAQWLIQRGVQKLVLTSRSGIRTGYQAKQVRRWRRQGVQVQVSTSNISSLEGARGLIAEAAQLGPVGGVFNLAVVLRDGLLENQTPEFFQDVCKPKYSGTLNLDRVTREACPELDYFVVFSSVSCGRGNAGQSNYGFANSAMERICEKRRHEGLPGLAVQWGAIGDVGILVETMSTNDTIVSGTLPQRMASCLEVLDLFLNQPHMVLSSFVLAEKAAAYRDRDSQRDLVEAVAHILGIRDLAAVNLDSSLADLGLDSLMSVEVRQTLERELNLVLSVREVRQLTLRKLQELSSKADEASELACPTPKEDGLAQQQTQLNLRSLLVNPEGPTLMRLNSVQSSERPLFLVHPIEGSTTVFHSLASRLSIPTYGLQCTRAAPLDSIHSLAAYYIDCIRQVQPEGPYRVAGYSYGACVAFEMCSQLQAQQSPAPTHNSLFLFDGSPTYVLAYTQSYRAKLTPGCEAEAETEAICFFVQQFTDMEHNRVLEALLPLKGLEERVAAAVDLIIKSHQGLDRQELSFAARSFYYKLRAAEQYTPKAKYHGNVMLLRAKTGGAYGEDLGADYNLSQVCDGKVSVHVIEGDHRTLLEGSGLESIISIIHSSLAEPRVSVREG

Fatty acid synthase [3] = target: T1, Fatty acid synthase; experiment: inhibition of human FAS-TE enzyme activity – biochemical, kinetic fluorescence intensity, dose response (AID 624326); assay type: functional;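 also: rate of fluorescence rise from hydrolysis of a fluorogenic O-methyl fluorescein ester substrate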
Paired box protein Pax-8 = Paired box protein Pax-8 (Homo sapiens, UniProt Q06710); experiment: PAX8 transcriptional activity inhibition in RMG-I – RMG-I cells, luciferase, cherry-pick, dose response (AID 687027); assay type: functional, cell-based;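 also: luciferase reporter driven by Pax8 target thyroperoxidase promoter measured by SteadyGlo luminescence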
Sequence of Paired box protein Pax-8 (Q06710 whole entry): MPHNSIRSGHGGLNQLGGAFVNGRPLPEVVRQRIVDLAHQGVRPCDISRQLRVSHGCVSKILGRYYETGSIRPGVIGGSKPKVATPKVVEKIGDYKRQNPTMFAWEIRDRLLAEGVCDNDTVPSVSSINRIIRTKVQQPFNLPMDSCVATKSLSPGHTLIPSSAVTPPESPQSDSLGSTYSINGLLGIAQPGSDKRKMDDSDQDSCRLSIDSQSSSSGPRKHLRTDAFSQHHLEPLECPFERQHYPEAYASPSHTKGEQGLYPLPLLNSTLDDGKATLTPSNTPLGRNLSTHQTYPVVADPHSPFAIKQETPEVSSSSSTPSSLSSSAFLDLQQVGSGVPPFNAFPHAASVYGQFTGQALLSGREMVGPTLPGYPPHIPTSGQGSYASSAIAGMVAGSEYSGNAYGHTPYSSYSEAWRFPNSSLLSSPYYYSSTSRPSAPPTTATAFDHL

[4] = OVCAR-3 cell viability loss – plate reader, dry powder samples, PAX8 inhibitor project, dose response (AID 743044); assay type: functional, cell-based
[5] = OVCAR8 cell viability loss – plate reader, dry powder samples, PAX8 project, dose response (AID 743197); assay type: functional, cell-based; conditions: OVCAR-8
[6] = target: Peroxisome proliferator-activated receptor gamma/Nuclear receptor coactivator 1 (Homo sapiens, UniProt P37231); experiment: (§1) TR-FRET dose response biochemical High Throughput Screening assay for agonists of the steroid receptor coactivator 1 (SRC-1) recruitment by the peroxisome proliferator-activated receptor gamma (PPAR gamma): non-selective agonists. [Related pubchem assays (depositor defined):AID1300, AID1808, AID504735, AID631]; assay type: protein assay
[7] = target: Peroxisome proliferator-activated receptor gamma/Nuclear receptor coactivator 3 (Homo sapiens, UniProt P37231); experiment: as §1, with “3 (SRC-3)” for “1 (SRC-1)”, “assays: 1301 (Confirmation screen.), 1048 (Primary screen.)]” for “assays (depositor defined):AID1300, AID1808, AID504735, AID631]”; assay type: functional
[8] = target: Peroxisome proliferator-activated receptor gamma/Nuclear receptor coactivator 2 (Homo sapiens, UniProt P37231); experiment: TR-FRET dose response biochemical High Throughput Screening assay for agonists of the steroid receptor coactivator 2 (SRC-2) recruitment by the peroxisome proliferator-activated receptor gamma (PPAR gamma): non-selective agonists. [Related pubchem assays: 1297, 1032 ]; assay type: functional
Sequence of Peroxisome proliferator-activated receptor gamma/Nuclear receptor coactivator 2 (P37231 whole entry): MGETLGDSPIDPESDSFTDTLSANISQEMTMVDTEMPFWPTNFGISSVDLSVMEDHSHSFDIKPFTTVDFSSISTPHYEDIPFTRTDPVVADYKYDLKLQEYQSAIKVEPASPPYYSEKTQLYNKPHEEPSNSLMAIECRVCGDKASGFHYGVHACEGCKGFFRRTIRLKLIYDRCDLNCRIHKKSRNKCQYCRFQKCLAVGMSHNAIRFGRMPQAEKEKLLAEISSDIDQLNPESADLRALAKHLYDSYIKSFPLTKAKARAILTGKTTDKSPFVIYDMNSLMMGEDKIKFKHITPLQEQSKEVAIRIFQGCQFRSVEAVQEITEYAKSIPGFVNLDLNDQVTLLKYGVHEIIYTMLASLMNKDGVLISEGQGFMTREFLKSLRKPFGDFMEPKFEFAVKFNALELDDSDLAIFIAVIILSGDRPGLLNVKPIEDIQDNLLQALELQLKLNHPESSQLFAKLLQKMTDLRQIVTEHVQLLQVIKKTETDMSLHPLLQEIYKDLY
Sequence of Peroxisome proliferator-activated receptor gamma/Nuclear receptor coactivator 2 (Q15596 whole entry, further chain): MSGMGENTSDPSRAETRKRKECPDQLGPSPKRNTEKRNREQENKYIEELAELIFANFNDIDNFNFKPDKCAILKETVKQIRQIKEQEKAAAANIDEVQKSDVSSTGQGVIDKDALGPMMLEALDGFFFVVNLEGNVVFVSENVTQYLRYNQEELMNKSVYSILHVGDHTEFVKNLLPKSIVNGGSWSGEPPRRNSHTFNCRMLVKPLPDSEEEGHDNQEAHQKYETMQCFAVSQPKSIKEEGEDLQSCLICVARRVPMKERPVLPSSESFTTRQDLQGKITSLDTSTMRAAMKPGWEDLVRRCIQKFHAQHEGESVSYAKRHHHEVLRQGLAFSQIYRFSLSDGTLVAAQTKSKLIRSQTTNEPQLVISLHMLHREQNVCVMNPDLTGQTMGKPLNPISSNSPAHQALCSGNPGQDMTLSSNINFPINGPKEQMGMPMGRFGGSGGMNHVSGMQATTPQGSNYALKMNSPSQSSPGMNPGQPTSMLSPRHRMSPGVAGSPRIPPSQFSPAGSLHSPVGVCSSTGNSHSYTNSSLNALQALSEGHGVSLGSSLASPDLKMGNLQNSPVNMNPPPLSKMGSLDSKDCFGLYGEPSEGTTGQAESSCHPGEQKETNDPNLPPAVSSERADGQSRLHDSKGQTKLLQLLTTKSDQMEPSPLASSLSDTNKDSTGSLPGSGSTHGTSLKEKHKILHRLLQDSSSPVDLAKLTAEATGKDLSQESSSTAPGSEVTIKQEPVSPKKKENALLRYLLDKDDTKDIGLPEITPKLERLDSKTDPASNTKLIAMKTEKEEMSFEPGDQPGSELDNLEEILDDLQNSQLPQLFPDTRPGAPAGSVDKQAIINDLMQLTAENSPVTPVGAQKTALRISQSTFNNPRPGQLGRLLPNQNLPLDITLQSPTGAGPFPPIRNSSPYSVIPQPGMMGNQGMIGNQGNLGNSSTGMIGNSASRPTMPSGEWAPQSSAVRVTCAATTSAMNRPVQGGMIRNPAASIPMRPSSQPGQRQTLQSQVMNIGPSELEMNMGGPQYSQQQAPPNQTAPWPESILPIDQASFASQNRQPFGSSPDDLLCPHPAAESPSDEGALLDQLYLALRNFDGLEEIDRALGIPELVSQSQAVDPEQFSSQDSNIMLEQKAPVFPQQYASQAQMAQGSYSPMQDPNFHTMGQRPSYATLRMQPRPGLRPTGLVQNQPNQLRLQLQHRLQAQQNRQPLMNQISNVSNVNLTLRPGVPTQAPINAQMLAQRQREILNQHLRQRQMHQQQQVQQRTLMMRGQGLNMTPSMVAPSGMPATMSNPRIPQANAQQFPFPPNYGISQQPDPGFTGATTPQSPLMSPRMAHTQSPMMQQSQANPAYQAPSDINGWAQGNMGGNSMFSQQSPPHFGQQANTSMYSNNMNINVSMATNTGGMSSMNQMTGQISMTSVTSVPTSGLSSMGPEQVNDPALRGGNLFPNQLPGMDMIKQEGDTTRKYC

[9] = IGROV1 cell killing – plate reader, dry powder samples, PAX8 inhibitor project, dose response (AID 743043); assay type: functional, cell-based; conditions: IGROV-1
[10] = target: T2, Oxysterols receptor LXR-beta (Homo sapiens, UniProt P55055); assay type: functional, cell-based;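 also: agonist activity at LXR measured by a cell-based luminescence readout across a dose range, run as a counterscreen for daf-12 agonists; HEK293 cells with Gal4-LXR fusion and GAL4-driven luciferase reporter; potency for activation of Gal4-LXR reporter so compounds are agonists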
T2 sequence (P55055 whole entry): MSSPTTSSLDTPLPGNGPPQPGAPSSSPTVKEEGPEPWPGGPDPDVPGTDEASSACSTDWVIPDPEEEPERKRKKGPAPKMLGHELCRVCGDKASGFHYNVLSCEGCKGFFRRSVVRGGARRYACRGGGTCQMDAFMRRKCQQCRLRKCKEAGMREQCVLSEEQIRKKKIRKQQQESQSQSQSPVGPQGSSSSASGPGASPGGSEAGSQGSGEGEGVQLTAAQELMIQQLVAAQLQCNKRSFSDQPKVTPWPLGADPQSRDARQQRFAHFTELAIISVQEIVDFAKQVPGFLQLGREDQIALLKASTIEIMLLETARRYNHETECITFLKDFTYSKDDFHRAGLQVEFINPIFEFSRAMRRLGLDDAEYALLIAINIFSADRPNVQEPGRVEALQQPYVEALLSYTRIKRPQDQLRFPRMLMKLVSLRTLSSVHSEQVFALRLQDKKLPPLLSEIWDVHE

[11] = blockers of bursicon-stimulated LGR2 cAMP reporter – cell-based, HEK293, CRE-luciferase reporter, cherry pick, set 2, dose response (AID 743343); assay type: functional;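 also: transfected cells were stimulated with diluted bursicon conditioned medium after compound addition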
[12] = blockade of melanocortin 4 receptor signaling – cell-based, plate reader, cherry pick, counter-screen for LGR2 antagonist project, dose response (AID 743444); assay type: functional;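 also: transfected HEK 293 cells stimulated with alpha-MSH peptide; potency of inhibitors of the alpha-MSH evoked signal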
fMet-Leu-Phe receptor = target: T3, fMet-Leu-Phe receptor (Homo sapiens, UniProt P21462); experiment: formyl peptide receptor binders – dose response (AID 519); assay type: functional
T3 sequence (P21462 whole entry): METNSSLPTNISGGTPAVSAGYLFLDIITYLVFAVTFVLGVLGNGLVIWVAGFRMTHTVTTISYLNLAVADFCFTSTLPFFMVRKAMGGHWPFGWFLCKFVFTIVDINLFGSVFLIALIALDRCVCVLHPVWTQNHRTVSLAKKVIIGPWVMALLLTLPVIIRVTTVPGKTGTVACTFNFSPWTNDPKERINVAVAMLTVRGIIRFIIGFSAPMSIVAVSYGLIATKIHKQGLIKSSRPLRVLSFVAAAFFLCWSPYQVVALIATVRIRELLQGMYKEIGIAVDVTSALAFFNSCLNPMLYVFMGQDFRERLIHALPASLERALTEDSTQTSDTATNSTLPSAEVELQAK

[13] = target: Eukaryotic translation initiation factor 4E (Mus musculus, UniProt P63073); experiment: blockers of eIF4G binding by eIF4E – biochemical, TR-FRET, dose response (AID 855); assay type: functional;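 also: potency for disrupting eIF4E binding to eIF4GI seen as loss of FRET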
Protein Tat = target: T4, Protein Tat (Human immunodeficiency virus type 1 group M subtype B (isolate HXB2)(HIV-1), UniProt P04608); assay type: functional;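 also: tat binding to TAR RNA read out by fluorescence polarization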
T4 sequence (P04608 whole entry): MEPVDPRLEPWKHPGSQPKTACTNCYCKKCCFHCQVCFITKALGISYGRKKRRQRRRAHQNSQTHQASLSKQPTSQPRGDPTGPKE

[14] = viability loss in THP-1 monocytes – THP-1 cells, cytotoxicity control for Vif-APOBEC3G degradation inhibitor project, dose response (AID 1117359); assay type: functional; conditions: THP-1
[15] = THP-1 cell cytotoxicity, dose response, cytotoxicity control for non-replicating M. tuberculosis project (AID 489025); assay type: functional
[16] = luciferase reporter signal suppression in cells – H4 neuroglioma cells, luminescence, dose response (AID 1990); assay type: functional, cell-based
[17] = Luminescence Cell-Based Dose Response HTS to Identify Inhibitors of 5'UTR Stem-Loop Driven Prion Protein mRNA Translation in H4 Neuroglioblastoma Cells. [Related pubchem assays: 1827 (Project Summary), 1813 (Primary HTS)]; assay type: functional
[18] = alpha-synuclein stem-loop luciferase translation blockers – H4 neuroglioma cells, luminescence, confirmation (AID 1988); assay type: functional, cell-based
[19] = HEK-293T cell viability reduction – luminescence, B-cell screen hits, cytotoxicity control for BCR NF-kB inhibitor project, dose response (AID 489021); assay type: functional, cell-based;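 also: HEK-293T cells carrying an NF-kB luciferase reporter; cells exposed to compound for about 14 hours before viability readout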

SMILES: C[C@H]1CN([C@@H](C)CO)C(=O)Cc2cc(NC(=O)Nc3cccc4ccccc34)ccc2O[C@H]1CN(C)Cc1ccc(C(=O)Nc2ccccc2N)cc1
- AC50 [1]: 3.39 µM (active)

SMILES: C=CCn1c(SCc2ccc(Br)cc2F)nc2cc(C(=O)O)ccc2c1=O
- IC50 (Fatty acid synthase [2]): 11.4 µM (active)
- IC50 (Fatty acid synthase [3]): 10.9 µM (active)

SMILES: C[C@@H]1CCCCO[C@@H](CN(C)Cc2ccncc2)[C@H](C)CN([C@@H](C)CO)C(=O)c2cc(NC(=O)Nc3ccc(C(F)(F)F)cc3)ccc2O1
- AC50 (Paired box protein Pax-8): 5.52 µM (active)
- AC50 [4]: 35.8 µM (active)
- AC50 [5]: > 70 µM (inactive)

SMILES: CC(C)CC(=O)NC(=S)Nc1cccc2nsnc12
- EC50 [6]: 1.81 µM (active)
- EC50 [7]: 7.93 µM (active)
- EC50 [8]: 2.92 µM (active)

SMILES: C[C@H]1CN([C@@H](C)CO)C(=O)Cc2cc(NC(=O)Nc3ccc4c(c3)OCO4)ccc2O[C@@H]1CN(C)Cc1ccc(C(F)(F)F)cc1
- AC50 [1]: 4.86 µM (active)

SMILES: C[C@@H]1CCCCO[C@@H](CN(C)Cc2ccc(C(F)(F)F)cc2)[C@H](C)CN([C@@H](C)CO)C(=O)c2cc(NC(=O)Cc3ccccc3)ccc2O1
- AC50 (Paired box protein Pax-8): 7.16 µM (active)
- AC50 [4]: 19.8 µM (active)
- AC50 [9]: 25.7 µM (active)
- AC50 [5]: 33.3 µM (active)

SMILES: Fc1ccccc1CSc1ncnc2c1ncn2C1CCCCO1 (stereo unspecified)
- EC50 [10]: > 67.6 µM (inactive)

SMILES: Cc1nc2c(OCCC3CCCCC3)cccn2c1N(C)C(=O)CCC1CCCC1
- AC50 [11]: 9.83 µM (active)
- AC50 [12]: 7.16 µM (active)

SMILES: Cc1nn(-c2nnc(NC3CCCCC3)nn2)c(C)c1Br
- EC50 [10]: > 67.6 µM (inactive)

SMILES: CC1=C(C(=O)OC(C)C)[C@]2(C(=O)N(CC(N)=O)c3ccccc32)C(C#N)=C(N)O1
- Ki (fMet-Leu-Phe receptor): > 66.7 µM (inactive)

SMILES: COc1cc(CN(C(=O)c2ccco2)c2ccc(C)cc2)ccc1O
- IC50 [13]: > 64 µM (inactive)
- IC50 (Protein Tat): 9.05 µM (inconclusive)
- CC50 [14]: > 40 µM (active)

SMILES: CC(C)(C)NCc1cc(Br)ccc1OCc1cccs1
- CC50 [15]: > 40 µM (active)

SMILES: O=C(NN1C(=O)/C(=C/c2nc3ccccc3[nH]2)SC1=S)c1ccccc1Cl
- EC50 [6]: 25.8 µM (inactive)
- EC50 [7]: > 79.4 µM (not active)
- EC50 [8]: 44.5 µM (not active)

SMILES: COc1cc(OC)cc(-c2cc3nc(C)c(CCC(=O)NCc4ccccc4)c(C)n3n2)c1
- EC50 [16]: 8.43 µM (active)
- EC50 [17]: 9.35 µM (active)
- EC50 [18]: 9.84 µM (active)
- IC50 [19]: > 80 µM (inactive)

SMILES: COc1ccc(-c2cc(C(F)(F)F)nc(N3CCN(Cc4ccccc4)CC3)n2)cc1OC
- Ki (fMet-Leu-Phe receptor): > 66.7 µM (inactive)
